# Values joined by “and” are separate entries in the source; they are usually repeats but may differ in a detail not shown here. Equal values may be shown once.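 Tested at 5 concentrations; 48 h exposure; 96-well plates; endpoints linearly interpolated, else capped at highest concentration. Abbreviation: GI50, concentration required for 50% inhibition of growth. TGI: concentration producing complete growth inhibition.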
# Key:
# Assay in all cases: growth of human tumour cells (NCI), 48 h
# HL-60(TB) leukemia = test system: HL-60(TB) leukemia
# IGROV1 ovarian = test system: IGROV1 ovarian
# HOP-92 NSCLC = test system: HOP-92 NSCLC
# HOP-62 NSCLC = test system: HOP-62 NSCLC
# SK-OV-3 ovarian = test system: SK-OV-3 ovarian
# NCI-H226 lung = test system: NCI-H226 lung
# MCF7 breast = test system: MCF7 breast
# KM12 colon = test system: KM12 colon
# SF-539 CNS = test system: SF-539 CNS
# SNB-19 CNS = test system: SNB-19 CNS
Structure (SMILES),GI50 (HL-60(TB) leukemia),TGI (HL-60(TB) leukemia),GI50 (IGROV1 ovarian),TGI (IGROV1 ovarian),GI50 (HOP-92 NSCLC) [nM],TGI (HOP-92 NSCLC),GI50 (HOP-62 NSCLC),TGI (HOP-62 NSCLC),GI50 (SK-OV-3 ovarian),TGI (SK-OV-3 ovarian),GI50 (NCI-H226 lung),TGI (NCI-H226 lung),GI50 (MCF7 breast),TGI (MCF7 breast),GI50 (KM12 colon),TGI (KM12 colon),GI50 (SF-539 CNS),TGI (SF-539 CNS),GI50 (SNB-19 CNS),TGI (SNB-19 CNS)
O=C1C2CC3C(CC2C(=O)[N]1[Sn]([c]1ccccc1)([c]1ccccc1)[c]1ccccc1)C1(Cl)C(Cl)=C(Cl)C3(Cl)C1(Cl)Cl (centres undefined),176 nM,0.497 µM,115 nM,0.334 µM,52.9,0.221 µM,192 nM,0.427 µM,137 nM,0.353 µM,184 nM,0.437 µM,37.6 nM,0.154 µM,130 nM,0.29 µM,179 nM,0.369 µM,163 nM,0.344 µM
CC1(C)SC2C(C(=O)O)N=C(Cc3ccccc3)N2C1C(=O)O (centres undefined),,,,> 100 µM,,> 100 µM,,> 100 µM,,> 100 µM,,51.3 µM,,> 100 µM,,> 100 µM,,57.3 µM,,> 100 µM
CC(=O)O[C@H](C[C@H](C(C)C)N(C)C(=O)[C@@H](NC(=O)[C@H]1CCCCN1C)C(C)C)c1nc(C(=O)N[C@@H](Cc2ccccc2)C[C@H](C)C(=O)O)c(C)s1,,,3.02 nM,> 25 µM,> 25000,> 25 µM,< 2.5 nM,> 25 µM,< 2.5 nM,> 25 µM,,,< 2.5 nM,> 25 µM,< 2.5 nM,> 25 µM,< 2.5 nM,0.0187 µM,< 2.5 nM,> 25 µM
COc1ccc(C(=S)c2cc(OC)c(OC)c(OC)c2)cc1OC(=O)CCl,< 12.9 nM,< 0.0218 µM,49.9 nM,> 100 µM,550,> 100 µM,61.4 nM,> 100 µM,68.4 nM,> 100 µM,2770 nM,> 100 µM,< 15.6 nM,43.5 µM,< 10 nM,> 100 µM,< 11 nM,0.0499 µM,< 20.7 nM,> 100 µM
CC[C@H](C)c1occ2c(O)c(C(=O)O)c(=O)cc-2c1C,,41.7 µM,,37.2 µM,,49.6 µM,,69.1 µM,,63.7 µM,,> 100 µM,,> 100 µM,,35.7 µM,,46.3 µM,,> 100 µM
N=c1ccn2c(n1)OC1C(OP(=O)(O)O)C(CO)OC12 (centres undefined),,13.6 µM,,> 100 µM,,> 100 µM,,> 100 µM,,> 100 µM,,> 100 µM,,> 100 µM,,> 100 µM,,> 100 µM,,> 100 µM
O=C(OC(C(=O)O)C(OC(=O)c1ccccc1)C(=O)O)c1ccccc1 (centres undefined) (tested in a mixture with another compound),,> 37.8 µM,,> 100 µM,,55.9 µM,,> 100 µM,,> 100 µM,,> 100 µM,,> 100 µM,,> 100 µM,,> 100 µM,,> 100 µM
O=S(=O)(/C=C/C=C/S(=O)(=O)c1ccccc1)c1ccccc1,188 nM,2.04 µM and 0.518 µM,1390 nM,3.57 µM,,2.77 µM and 3.35 µM,8810 nM,20.9 µM,,19.9 µM,1240 nM,4.85 µM,525 nM,3.81 µM and 2.3 µM,11100 nM,4.25 µM and 23.5 µM,2140 nM,4.43 µM,,31.2 µM
O=C1C=C(Nc2ccccc2)c2ncccc2C1=O,842 nM,3.84 µM,904 nM,2.58 µM,1490,2.97 µM,376 nM,1.49 µM,1750 nM,3.16 µM,1710 nM,3.61 µM,203 nM,0.452 µM,669 nM,2.11 µM,356 nM,1.21 µM,411 nM,1.43 µM
Nc1ccccc1NC(=O)c1ccc(CSc2nc(N3CCOCC3)c3cccn3n2)cc1,273 nM,0.961 µM,1180 nM,> 100 µM,150,0.991 µM,1490 nM,45.9 µM,790 nM,6.43 µM,1260 nM,3.95 µM,335 nM,> 100 µM,1140 nM,> 100 µM,773 nM,> 100 µM,2670 nM,> 100 µM
COc1ccc(-c2cc(-c3ccc(Nc4nc(Nc5ccc(Cl)cc5)nc(Nc5ccc(Cl)cc5)n4)cc3)no2)cc1,1870 nM,12.1 µM,6300 nM,42.8 µM,1910,6.26 µM,20500 nM,60.5 µM,25800 nM,79.4 µM,19800 nM,49.2 µM,7860 nM,47.5 µM,7830 nM,30.3 µM,17200 nM,57.8 µM,27400 nM,> 100 µM
Nc1ncc(-c2cnn(C3CCNCC3)c2)cc1-c1nc2ccccc2o1,472 nM,1.66 µM,211 nM,0.891 µM,553,2.05 µM,915 nM,5.19 µM,1110 nM,5.78 µM,1970 nM,6.59 µM,441 nM,2.13 µM,81.2 nM,1.45 µM,1500 nM,2.83 µM,3250 nM,10.6 µM
CNC(=O)c1ccc(Nc2ncc(C(F)(F)F)c(NCc3nccnc3N(C)S(C)(=O)=O)n2)cc1,2020 nM and 2190 nM and 2490 nM,8.1 µM and 6.09 µM and 7.7 µM,881 nM and 1810 nM and 1640 nM,> 10 µM and 12 µM and 13.1 µM,,2.37 µM and 6.54 µM and 6.4 µM,2160 nM and 2070 nM and 1980 nM,> 10 µM and 9.71 µM and 9.8 µM,3160 nM and 2270 nM and 2410 nM,> 10 µM and 9.35 µM and 11.4 µM,1260 nM and 2710 nM and 3280 nM,6.67 µM and 12 µM and 18.2 µM,1790 nM and 2160 nM and 1880 nM,> 10 µM and 9.76 µM and 11.4 µM,383 nM and 309 nM and 307 nM,> 10 µM and 6.33 µM and 11.3 µM,1860 nM and 1990 nM and 1820 nM,4.76 µM and 5.11 µM and 4.9 µM,3210 nM and 3170 nM and 3310 nM,> 10 µM and 13.3 µM and 14.7 µM
O=C1C(=O)c2cc([N+](=O)[O-])ccc2-c2ccccc21,,,1900 nM,3.54 µM,1660,3.12 µM,,,1760 nM,3.14 µM,1780 nM,3.27 µM,1820 nM,3.64 µM,1790 nM,3.23 µM,1820 nM,3.24 µM,1600 nM,3 µM
C=C(C)C(=O)NC(N)=NC#N,,42.6 µM and 50.3 µM,168000 nM,> 75.1 µM and 309 µM,26700,33.7 µM and 63.1 µM,206000 nM,362 µM,,308 µM,,330 µM,109000 nM,248 µM,147000 nM,286 µM,154000 nM,73.3 µM and 290 µM,,330 µM
COc1ccc(-c2coc3ncnc(N)c23)cc1,> 25000 nM,> 25 µM,> 25000 nM,> 25 µM,> 14000,> 25 µM,> 25000 nM,> 25 µM,> 25000 nM,> 25 µM,> 25000 nM,> 25 µM,> 25000 nM,> 25 µM,> 25000 nM,> 25 µM,> 25000 nM,> 25 µM,> 25000 nM,> 25 µM
COc1cc2[nH]c(C(=O)c3cc(OC)c(OC)c(OC)c3)c(N)c2cc1C#CCO,313 nM,0.956 µM,795 nM,68.8 µM,86.2,90.7 µM,322 nM,> 100 µM,482 nM,> 100 µM,752 nM,> 100 µM,88.6 nM,> 100 µM,334 nM,> 100 µM,138 nM,0.491 µM,410 nM,> 100 µM
[N-]=[N+]=NC1(N=[N+]=[N-])C(=O)NN=C(c2ccccc2)C1=O (centres undefined),,> 100 µM,,> 100 µM,,> 100 µM,,> 100 µM,,> 100 µM,,> 100 µM,,> 100 µM,,> 100 µM,,> 100 µM,,
CN1CCN(C(=O)c2ccc(NC(=O)Nc3ccc(N(C)c4ccnc(Nc5ccc(CS(C)(=O)=O)cc5)n4)cc3)cc2)CC1,> 19400 nM,> 25 µM,> 16400 nM,> 25 µM,> 25000,> 25 µM,7610 nM,> 25 µM,> 25000 nM,> 25 µM,6790 nM,> 25 µM,7410 nM,> 25 µM,7330 nM,> 25 µM,11200 nM,> 25 µM,12700 nM,> 25 µM
CC(C)C1C(=O)N2CCCC2C2(O)OC(NC(=O)C3C=C4c5cccc6[nH]cc(c56)CC4N(C)C3)(C(C)C)C(=O)N12 (centres undefined),,48.5 µM,,36.5 µM,,30.1 µM,,> 100 µM,,,,,,> 100 µM,,47.7 µM,,52.4 µM,,> 100 µM
CCCCCCN(CCCCCC)C(=N)c1ccnc2ccccc12,2930 nM,16.8 µM,2830 nM,13.4 µM,1390,9.22 µM,10800 nM,24.2 µM,12300 nM,24.7 µM,11800 nM,26.7 µM,2130 nM,5.53 µM,3950 nM,15.2 µM,5120 nM,17.5 µM,11000 nM,25.7 µM
C[C@H]1CCC/C=C/[C@@H]2C[C@H](O)C[C@H]2[C@H](O)[C@H](S(=O)c2ccc(O)cc2)CC(=O)O1 (some centres undefined),33.8 nM,0.139 µM,147 nM,,52.9,> 100 µM,85.5 nM,> 65.6 µM,< 20.5 nM,,34.4 nM,0.146 µM,32.3 nM,,< 14.6 nM,,< 15.7 nM,> 36.4 µM,187 nM,> 100 µM
O=c1oc2ccc(Cl)cc2c(=O)n1-c1ccc(Cl)cc1F,,,237 nM,20.6 µM,143,0.49 µM,622 nM,2.86 µM,501 nM,,576 nM,3.3 µM,593 nM,23.8 µM,1520 nM,4.5 µM,462 nM,3.7 µM,391 nM,> 100 µM
CCOC(=O)[C@H](CSSc1ncnc2cc[nH]c12)NC(=O)[C@@H](C)c1ccc2cc(OC)ccc2c1,1040 nM,> 100 µM,5080 nM,> 100 µM,390,41 µM,408 nM,> 100 µM,2770 nM,> 100 µM,614 nM,> 100 µM,122 nM,> 100 µM,1610 nM,> 100 µM,478 nM,> 100 µM,44400 nM,> 100 µM
CCc1ccc(C2=C/C(=C/c3ccc(Cl)cc3)C(=O)N2CCc2ccc(S(N)(=O)=O)cc2)cc1,2120 nM,5.35 µM,3260 nM,12.7 µM,1670,4.8 µM,2420 nM,5.86 µM,3110 nM,9.15 µM,2370 nM,6.34 µM,2220 nM,7.99 µM,3020 nM,10.1 µM,2110 nM,4.12 µM,2980 nM,13.7 µM
CS(=O)(=O)c1ccc(N/N=C/c2c(-c3ccc(S(C)(=O)=O)cc3)[nH]c3ccc(F)cc23)cc1,2590 nM,> 50 µM,2780 nM,> 50 µM,2180,> 50 µM,2170 nM,> 50 µM,3270 nM,> 50 µM,,,1590 nM,> 50 µM,2840 nM,> 50 µM,676 nM,2.11 µM,2360 nM,> 50 µM
CCCCCCCCN(CCCCCCCC)C(=N)c1ccnc2ccccc12,1300 nM,2.97 µM,,,1020,2.32 µM,1420 nM,2.88 µM,1610 nM,3 µM,,,261 nM,1.21 µM,,,1540 nM,2.99 µM,1550 nM,3.17 µM
COc1ccc(NC(=O)C(=O)C(CC2C(=O)NC(=S)NC2=O)C(=O)c2ccc3ccccc3c2)c([N+](=O)[O-])c1 (centres undefined),,> 100 µM,,> 100 µM,,> 100 µM,,,,> 100 µM,,> 100 µM,,> 100 µM,,> 100 µM,,> 100 µM,,> 100 µM
